Consider 17 compounds from US4575560A, “Insecticidal diaminoguanidine hydrazone compounds” (American Cyanamid Company, priority 1985, dated 1986).

In one experiment the test system is Southern Armyworm. The experiment is described as follows: Southern armyworm test, third-instar larvae on treated Sieva lima bean leaves. In kind it is in vivo, Spodoptera eridania (Cramer). Particulars: third-instar larvae. The protocol: Test formulations and procedures used for evaluation are as follows:
A. 100 mg of the test material is weighed, placed in a funnel over a 113 g narrow-mouth bottle, rinsed into the bottle with a 35 mL scoop of acetone, followed by a 35 mL scoop of water and another 35 mL scoop of acetone to yield 1000 ppm in 65% acetone. If the material is not soluble, it is broken up with a glass rod and used as a suspension.
B. This stock solution ("A") is used to make 300 ppm solutions or suspensions by pipetting 30 mL of "A" into a bottle containing 70 mL of 50% acetone to yield 300 ppm. Further dilutions in 50% acetone are made as required.
C. Tests requiring 10 ppm acetone solutions: 1 mL of "A" is pipetted into 99 mL of acetone to yield 10 ppm. Additional dilutions are made using 50% acetone as required.
Southern Armyworm--Spodoptera eridania (Cramer)
A Sieva lima bean plant with just the primary leaves expanded to 1.91 cm is dipped for three seconds with agitation in the "A" solution of 1000 ppm and set in the hood to dry. Following this, one leaf is placed in a 9 cm petri dish which has a moist filter paper in the bottom and 10 third-instar armyworm larvae about 1 cm long. This dish is covered and held at 80° F., and 50% r.h. After two days, mortality counts and estimates of the amount of feeding are made. Compounds showing partial kill and/or inhibition of feeding are held for an extra day for further observations.
All compounds showing activity as defined above are retested, using the second leaf on the bean plant, after an interval of seven days from original treatment, as an assay of residual activity.

For experiment [1], the system named is Tobacco Budworm 3rd Instar. The experiment is described as follows: Tobacco budworm secondary test, third-instar larvae on treated cotton cotyledons. In kind it is in vivo, Heliothis virescens (Fabricus).

With `CC(C)OC(=O)N(N=Cc1ccc(OC(F)(F)F)cc1)C(=N)NN=Cc1ccc(OC(F)(F)F)cc1` [CF3 O / CF3 O / -i-C3 H7], the “Mortality Rating Southern Armyworm” value is listed as 7 (76-85%) with Southern Armyworm (10 ppm), 9 (100%) with Southern Armyworm (100 ppm) and 9 (100%) with Southern Armyworm (1000 ppm). The “Mortality Rating Tobacco Budworm 3rd Instar” value in experiment [1] (100 ppm) was 5 (56-65%). Besides, the “reduced feeding (R) Tobacco Budworm 3rd Instar” value (“reduced feeding” below) in experiment [1] (100 ppm) is listed as “R”.
As for `CCN(CC)C(=O)N(N=Cc1ccc(OC(F)(F)F)cc1)C(=N)NN=Cc1ccc(OC(F)(F)F)cc1` [CF3 O / CF3 O / C2 H5 / C2 H5], the “Mortality Rating Southern Armyworm” value in the experiment with Southern Armyworm (10 ppm) is on record as 0 (No effect); in the experiment on Southern Armyworm (100 ppm) it was 9 (100%); in the experiment with Southern Armyworm (1000 ppm) it was 9 (100%). Besides, the “Mortality Rating Tobacco Budworm 3rd Instar” value in experiment [1] (1000 ppm) was 8 (86-99%).
With `N=C(NN=Cc1ccc2c(c1)OC(F)(F)O2)NN=Cc1ccc2c(c1)OC(F)(F)O2` [drawing 46 / S], the “Mortality Rating Southern Armyworm” value with Southern Armyworm (10 ppm) is given as 4 (46-55%); in the experiment on Southern Armyworm (100 ppm), 0 (No effect); with Southern Armyworm (1000 ppm) it was 9 (100%). Moreover, the “Mortality Rating Tobacco Budworm 3rd Instar” value in experiment [1] (100 ppm) and in experiment [1] (1000 ppm) was 0 (No effect) in each case. The “reduced feeding” value in experiment [1] (100 ppm) and in experiment [1] (1000 ppm) was “R” in each case.
Turning to `CC(C)OC(=O)N(N=Cc1ccc(SC(F)(F)C(F)F)cc1)C(=N)NN=Cc1ccc(SC(F)(F)C(F)F)cc1` [HCF2 CF2 S / HCF2 CF2 S / -i-C3 H7], the “Mortality Rating Southern Armyworm” value in the experiment with Southern Armyworm (100 ppm) and with Southern Armyworm (1000 ppm) was 9 (100%) throughout. In addition, the “Mortality Rating Tobacco Budworm 3rd Instar” value in experiment [1] (100 ppm) is given as 0 (No effect); in experiment [1] (1000 ppm), 5 (56-65%). Moreover, in experiment [1] (1000 ppm), the “reduced feeding” value is “R”.
`C=CCOC(=O)N(N=Cc1ccc(C(F)(F)F)cc1)C(=N)NN=Cc1ccc(C(F)(F)F)cc1` [CF3 / CF3 / CH2CHCH2]: the “Mortality Rating Southern Armyworm” value with Southern Armyworm (10 ppm) was 0 (No effect); in the experiment on Southern Armyworm (100 ppm), 9 (100%); with Southern Armyworm (1000 ppm), 9 (100%). Besides, the “Mortality Rating Tobacco Budworm 3rd Instar” value in experiment [1] (100 ppm) and in experiment [1] (1000 ppm) was 0 (No effect) each time. Also, the “reduced feeding” value in experiment [1] (1000 ppm) is on record as “R”.
In the case of `CC(C)OC(=O)N(N=Cc1ccc2c(c1)OC(F)C(F)(F)O2)C(=N)NN=Cc1ccc2c(c1)OC(F)C(F)(F)O2` (stereo not shown) [drawing 52 / drawing 53 / -i-C3 H7], the “Mortality Rating Southern Armyworm” value in the experiment on Southern Armyworm (10 ppm) is 0 (No effect); with Southern Armyworm (100 ppm), 5 (56-65%); in the experiment on Southern Armyworm (1000 ppm), 8 (86-99%). Also, the “Mortality Rating Tobacco Budworm 3rd Instar” value in experiment [1] (100 ppm) and in experiment [1] (1000 ppm) was 0 (No effect) throughout. Moreover, the “reduced feeding” value in experiment [1] (1000 ppm) was “R”.
In the case of `N=C(NN=Cc1ccc(OC(F)(F)F)cc1)N(N=Cc1ccc(OC(F)(F)F)cc1)C(=O)OCCCl` [CF3 O / CF3 O / ClCH2 CH2], the “Mortality Rating Southern Armyworm” value in the experiment with Southern Armyworm (10 ppm) is 5 (56-65%); with Southern Armyworm (100 ppm), 9 (100%); in the experiment with Southern Armyworm (1000 ppm), 9 (100%). The “Mortality Rating Tobacco Budworm 3rd Instar” value was 0 (No effect) in experiment [1] (10 ppm), 0 (No effect) in experiment [1] (100 ppm) and 8 (86-99%) in experiment [1] (1000 ppm). Moreover, the “reduced feeding” value in experiment [1] (10 ppm), in experiment [1] (100 ppm) and in experiment [1] (1000 ppm) was “R” in each case.
Consider `CNC(=O)N(N=Cc1ccc(OC(F)(F)C(F)F)cc1)C(=N)NN=Cc1ccc(OC(F)(F)C(F)F)cc1` [HCF2 CF2 O / HCF2 CF2 O / CH3 / H], for which the “Mortality Rating Southern Armyworm” value in the experiment on Southern Armyworm (10 ppm) was 0 (No effect); with Southern Armyworm (100 ppm), 9 (100%); in the experiment with Southern Armyworm (1000 ppm) it was 9 (100%). Moreover, the “Mortality Rating Tobacco Budworm 3rd Instar” value in experiment [1] (1000 ppm) is 4 (46-55%).
Regarding `CC1(C)Oc2ccc(C=NNC(=N)NN=Cc3ccc4c(c3)OC(C)(C)O4)cc2O1` [drawing 45 / S], the “Mortality Rating Southern Armyworm” value was 6 (66-75%) in the experiment with Southern Armyworm (10 ppm) and 9 (100%) in the experiment on Southern Armyworm (1000 ppm). Also, the “Mortality Rating Tobacco Budworm 3rd Instar” value in experiment [1] (100 ppm) and in experiment [1] (1000 ppm) was 0 (No effect) throughout. For the same compound, in experiment [1] (1000 ppm), the “reduced feeding” value is listed as “R”.
In the case of `N=C(NN=Cc1ccc(Cl)cc1)NN=Cc1ccc(Cl)cc1` [Cl / HNO3], the results for the “Mortality Rating Southern Armyworm” value in the experiment with Southern Armyworm (100 ppm) and in the experiment on Southern Armyworm (1000 ppm) were 0 (No effect) and 9 (100%), respectively. In experiment [1] (1000 ppm), the “Mortality Rating Tobacco Budworm 3rd Instar” value was 0 (No effect).
For the compound `CCCCOC(=O)N(N=Cc1ccc(C(F)(F)F)cc1)C(=N)NN=Cc1ccc(C(F)(F)F)cc1` [CF3 / CF3 / -n-C4 H9], the entries for the “Mortality Rating Southern Armyworm” value in the experiment with Southern Armyworm (100 ppm) and with Southern Armyworm (1000 ppm) were 0 (No effect) and 9 (100%), respectively. The “Mortality Rating Tobacco Budworm 3rd Instar” value in experiment [1] (1000 ppm) is 0 (No effect).
With `CCCOC(=O)N(N=Cc1ccc(SC(F)F)cc1)C(=N)NN=Cc1ccc(OC(F)F)cc1` [HCF2 S / HCF2 O / -n-C3 H7], the “Mortality Rating Southern Armyworm” value in the experiment with Southern Armyworm (100 ppm) is 0 (No effect); in the experiment on Southern Armyworm (1000 ppm), 9 (100%). Moreover, the “Mortality Rating Tobacco Budworm 3rd Instar” value in experiment [1] (1000 ppm) is recorded as 0 (No effect).
Regarding `CCC(C)OC(=O)N(N=Cc1ccc(C(F)(F)F)cc1)C(=N)NN=Cc1ccc(C(F)(F)F)cc1` (stereo not shown) [CF3 / CF3 / drawing 54], the “Mortality Rating Southern Armyworm” value is on record as 6 (66-75%) in the experiment on Southern Armyworm (10 ppm), 9 (100%) in the experiment on Southern Armyworm (100 ppm) and 9 (100%) in the experiment with Southern Armyworm (1000 ppm). The “Mortality Rating Tobacco Budworm 3rd Instar” value in experiment [1] (100 ppm) is listed as 0 (No effect); in experiment [1] (1000 ppm) it was 6 (66-75%). The “reduced feeding” value in experiment [1] (100 ppm) and in experiment [1] (1000 ppm) was “R” throughout.
Turning to `CC(C)OC(=O)N(N=Cc1ccc(OC(F)(F)C(F)Cl)cc1)C(=N)NN=Cc1ccc(OC(F)(F)C(F)Cl)cc1` (stereo not shown) [drawing 50 / drawing 51 / -i-C3 H7], the “Mortality Rating Southern Armyworm” value in the experiment on Southern Armyworm (10 ppm) was 0 (No effect); with Southern Armyworm (100 ppm) it was 9 (100%); in the experiment on Southern Armyworm (1000 ppm), 9 (100%). Besides, the “Mortality Rating Tobacco Budworm 3rd Instar” value in experiment [1] (1000 ppm) is 0 (No effect). The “reduced feeding” value in experiment [1] (1000 ppm) is “R”.
Take `N=C(NN=Cc1ccc(SC(F)F)cc1)NN=Cc1ccc(SC(F)F)cc1` [HCF2 S / S]: the “Mortality Rating Southern Armyworm” value in the experiment with Southern Armyworm (100 ppm) was 9 (100%). Besides, the “Mortality Rating Southern Armyworm” value in the experiment on Southern Armyworm (1000 ppm) was 9 (100%). For the same compound, in experiment [1] (1000 ppm), the “Mortality Rating Tobacco Budworm 3rd Instar” value is 0 (No effect) and the “reduced feeding” value is “R”.
As to `COC(=O)N(N=Cc1ccc(C(F)(F)F)cc1)C(=N)NN=Cc1ccc(C(F)(F)F)cc1` [CF3 / CF3 / CH3], the figures for the “Mortality Rating Southern Armyworm” value in the experiment with Southern Armyworm (10 ppm), with Southern Armyworm (100 ppm) and in the experiment with Southern Armyworm (1000 ppm) were 3 (36-45%), 9 (100%) and 9 (100%), respectively. Moreover, in experiment [1] (1000 ppm), the “Mortality Rating Tobacco Budworm 3rd Instar” value is reported as 6 (66-75%).
`N=C(NN=Cc1ccc(OCC(F)(F)F)cc1)NN=Cc1ccc(OCC(F)(F)F)cc1` [CF3 CH2 O / B]: the “Mortality Rating Southern Armyworm” value is given as 0 (No effect) in the experiment with Southern Armyworm (100 ppm) and 4 (46-55%) with Southern Armyworm (1000 ppm). The “Mortality Rating Tobacco Budworm 3rd Instar” value in experiment [1] (100 ppm) and in experiment [1] (1000 ppm) was 0 (No effect) throughout. Besides, in experiment [1] (1000 ppm), the “reduced feeding” value is “R”.
